Source: the supplement of paper PMC13380429
Structures can show the parent of a compound that is named as a salt.

What was measured:
Details in all cases: 72 h
Calu-3 [1] = experiment: drug sensitivity score (DSS) for viability; higher = more toxic; extreme values may be limits of the assay
Vero E6 [2] = experiment: as above
U2OS [3] = experiment: as above
HepG2 [4] = experiment: as above
Caco-2 [5] = experiment: as above
Calu-3 [6] = experiment: cell viability relative to DMSO; higher = less toxic
Vero E6 [7] = experiment: as above
U2OS [8] = experiment: as above
HepG2 [9] = experiment: as above
Caco-2 [10] = experiment: as above
Calu-3 [11] = experiment: relative viability EC50 (midpoint between 100% and the lowest measured viability); higher = less toxic
Vero E6 [12] = experiment: as above
U2OS [13] = experiment: as above
HepG2 [14] = experiment: as above
Caco-2 [15] = experiment: as above

| Structure (SMILES) | drug sensitivity score (Calu-3 [1]) | drug sensitivity score (Vero E6 [2]) | drug sensitivity score (U2OS [3]) | drug sensitivity score (HepG2 [4]) | drug sensitivity score (Caco-2 [5]) | cell viability (Calu-3 [6]; 1 nM) [%] | cell viability (Calu-3 [6]; 10 nM) [%] | cell viability (Calu-3 [6]; 100 nM) [%] | cell viability (Calu-3 [6]; 1000 nM) [%] | cell viability (Calu-3 [6]; 10000 nM) [%] | cell viability (Vero E6 [7]; 1 nM) [%] | cell viability (Vero E6 [7]; 10 nM) [%] | cell viability (Vero E6 [7]; 100 nM) [%] | cell viability (Vero E6 [7]; 1000 nM) [%] | cell viability (Vero E6 [7]; 10000 nM) [%] | cell viability (U2OS [8]; 1 nM) [%] | cell viability (U2OS [8]; 10 nM) [%] | cell viability (U2OS [8]; 100 nM) [%] | cell viability (U2OS [8]; 1000 nM) [%] | cell viability (U2OS [8]; 10000 nM) [%] | cell viability (HepG2 [9]; 1 nM) [%] | cell viability (HepG2 [9]; 10 nM) [%] | cell viability (HepG2 [9]; 100 nM) [%] | cell viability (HepG2 [9]; 1000 nM) [%] | cell viability (HepG2 [9]; 10000 nM) [%] | cell viability (Caco-2 [10]; 1 nM) [%] | cell viability (Caco-2 [10]; 10 nM) [%] | cell viability (Caco-2 [10]; 100 nM) [%] | cell viability (Caco-2 [10]; 1000 nM) [%] | cell viability (Caco-2 [10]; 10000 nM) [%] | relative viability EC50 (Calu-3 [11]) [µM] | relative viability EC50 (Vero E6 [12]) [µM] | relative viability EC50 (U2OS [13]) [µM] | relative viability EC50 (HepG2 [14]) [µM] | relative viability EC50 (Caco-2 [15]) [µM] |
| --- | --- | --- | --- | --- | --- | --- | --- | --- | --- | --- | --- | --- | --- | --- | --- | --- | --- | --- | --- | --- | --- | --- | --- | --- | --- | --- | --- | --- | --- | --- | --- | --- | --- | --- | --- |
| Nc1ncnc2c1C(=O)N(c1ccc([C@H]3CC[C@H](CC(=O)O)CC3)cc1)CCO2 | 0 | 0 | 0 | 0 | 0 | 107 | 99.7 | 109 | 105 | 110 | 98 | 103 | 93.7 | 107 | 107 | 104 | 99.6 | 109 | 102 | 97.5 | 91.2 | 101 | 95.3 | 117 | 92.3 | 100 | 90.6 | 95.3 | 98.1 | 104 | > 10 | > 10 | > 10 | > 10 | > 10 |
| Nc1ncnc2c1ncn2C1CCCO1 (centres undefined) | 0 | 0 | 0 | 0 | 0 | 106 | 102 | 94.1 | 102 | 102 | 95.6 | 102 | 101 | 98.8 | 100 | 97.4 | 98.9 | 94.8 | 99.4 | 98.9 | 98.7 | 94.8 | 103 | 93.9 | 103 | 104 | 107 | 99.7 | 90.2 | 91.7 | > 10 | > 10 | > 10 | > 10 | > 10 |
| CN(C)CC[C@H](CSc1ccccc1)Nc1ccc(S(=O)(=O)NC(=O)c2ccc(N3CCN(Cc4ccccc4-c4ccc(Cl)cc4)CC3)cc2)cc1[N+](=O)[O-] [ABT-737] | 4 | 0 | – | 0 | 0.3 | 115 | 99.1 | 114 | 95.2 | 39.3 | 97.2 | 98.6 | 95.3 | 96 | 95.1 | – | – | – | – | – | 109 | 111 | 104 | 95.8 | 93 | 104 | 92.4 | 105 | 101 | 83.8 | 2.52 | > 10 | – | > 10 | > 10 |
| CCCC(C)(COC(N)=O)COC(=O)NC(C)C (centres undefined) [CARISOPRODOL] | 0 | 0 | 0 | – | 0 | 108 | 88.2 | 93.2 | 85.7 | 98.1 | 106 | 101 | 98.8 | 105 | 101 | 102 | 97.7 | 101 | 102 | 104 | – | – | – | – | – | 96.1 | 103 | 97.6 | 101 | 104 | > 10 | > 10 | > 10 | – | > 10 |
| CCCn1c(=O)[nH]c2nc(-c3ccc(S(=O)(=O)O)cc3)[nH]c2c1=O [PSB-1115] | 0 | 0 | 0 | – | 0 | 112 | 104 | 100 | 110 | 94.4 | 106 | 105 | 107 | 103 | 95.5 | 99.9 | 109 | 98.2 | 108 | 102 | – | – | – | – | – | 99.4 | 94.6 | 111 | 105 | 95.4 | > 10 | > 10 | > 10 | – | > 10 |
| CC[C@H]1OC(=O)C[C@@H](O)[C@H](C)[C@@H](O[C@@H]2O[C@H](C)[C@@H](O[C@H]3C[C@@](C)(O)[C@@H](O)[C@H](C)O3)[C@H](N(C)C)[C@H]2O)[C@@H](CC=O)C[C@@H](C)C(=O)/C=C/C(C)=C/[C@@H]1CO[C@@H]1O[C@H](C)[C@@H](O)[C@@H](OC)[C@H]1OC [TYLOSIN TARTRATE] | 2.1 | 5.2 | 8.7 | 4 | 8.9 | 104 | 108 | 104 | 91 | 74.6 | 102 | 102 | 98.7 | 95.2 | 18.9 | 102 | 97.3 | 96.9 | 56.6 | 39.9 | 99 | 101 | 95.2 | 94.8 | 40.7 | 101 | 96.4 | 109 | 63 | 23.4 | – | 2.7 | 0.566 | 2.44 | 1.03 |
| O=C(O)CCCN1CCC(O[C@@H](c2ccc(Cl)cc2)c2ccccn2)CC1 [bepotastine] | 0 | 0 | – | 0 | 0 | 97 | 106 | 94.2 | 93.8 | 113 | 93.2 | 98.3 | 90.2 | 95.8 | 105 | – | – | – | – | – | 98.7 | 113 | 99 | 102 | 113 | 91.3 | 92.1 | 99.4 | 93.4 | 107 | > 10 | > 10 | – | > 10 | > 10 |
| COc1cc(C(=O)NCCCCCC(=O)O)cc(OC)c1OC [capobenic-acid] | 0 | 0 | 0 | – | 3.1 | 96.3 | 94.9 | 94.5 | 104 | 98.6 | 103 | 101 | 99 | 101 | 94.6 | 97 | 103 | 94.7 | 111 | 94 | – | – | – | – | – | 110 | 111 | 96.7 | 80.2 | 93.5 | > 10 | > 10 | > 10 | – | > 10 |
| CC(=O)Nc1ccc(OC(C)=O)cc1 [diacetamate] | 0.2 | 0 | – | 0 | 0 | 99.1 | 99.7 | 99.7 | 101 | 84.9 | 96.1 | 96 | 94.3 | 84.8 | 101 | – | – | – | – | – | 114 | 98.5 | 110 | 101 | 105 | 91.8 | 103 | 94.7 | 101 | 111 | > 10 | > 10 | – | > 10 | > 10 |
| CCc1[nH]c(=O)[nH]c1C(=O)c1ccncc1 [piroximone] | 0 | 0 | 0 | – | 0 | 103 | 110 | 99.3 | 95.2 | 89.3 | 99 | 94.6 | 96.8 | 93.3 | 94.6 | 93.5 | 103 | 94.6 | 102 | 94.1 | – | – | – | – | – | 96.4 | 95.2 | 88.7 | 99.4 | 94.6 | > 10 | > 10 | > 10 | – | > 10 |
| CC(C)N(CCCCOCC(=O)NS(C)(=O)=O)c1cnc(-c2ccccc2)c(-c2ccccc2)n1 [selexipag] | 0 | 0 | – | – | 0 | 95 | 105 | 97.3 | 110 | 105 | 100 | 102 | 93 | 98.4 | 93.2 | – | – | – | – | – | – | – | – | – | – | 110 | 103 | 94.5 | 107 | 105 | > 10 | > 10 | – | – | > 10 |
| O=C(OC[C@H]1O[C@@H](OC(=O)c2cc(O)c(O)c(OC(=O)c3cc(O)c(O)c(O)c3)c2)[C@H](OC(=O)c2cc(O)c(O)c(OC(=O)c3cc(O)c(O)c(O)c3)c2)[C@@H](OC(=O)c2cc(O)c(O)c(OC(=O)c3cc(O)c(O)c(O)c3)c2)[C@@H]1OC(=O)c1cc(O)c(O)c(OC(=O)c2cc(O)c(O)c(O)c2)c1)c1cc(O)c(O)c(OC(=O)c2cc(O)c(O)c(O)c2)c1 [tannic-acid] | 0.4 | 5.7 | 2.7 | 0.8 | 3.2 | 94.4 | 99.9 | 98.6 | 108 | 78.8 | 103 | 109 | 102 | 77.4 | 48.8 | 97.7 | 98.5 | 93.7 | 97.8 | 53.1 | 108 | 94.6 | 104 | 104 | 74.2 | 99.6 | 93.5 | 90.5 | 99.1 | 43.5 | > 10 | 1.1 | – | – | 3.04 |
| CCCCCCCCCCCCCCCC[N+](C)(C)CCN(Cc1ccc(OC)cc1)c1ncccn1 [thonzonium] | 7.9 | 0.4 | – | 3.9 | 8.3 | 102 | 100 | 96.3 | 85.8 | -0.1 | 96 | 97.8 | 94.6 | 97.5 | 85.6 | – | – | – | – | – | 94.4 | 101 | 93.8 | 103 | 24.4 | 106 | 98.1 | 110 | 80.3 | 7.2 | 2.04 | > 10 | – | 3.41 | 1.69 |
| N#Cc1cc(-c2n[nH]c(-c3ccncc3)n2)ccn1 [topiroxostat] | 0 | 0 | – | 0 | 0 | 103 | 87.4 | 107 | 95.1 | 118 | 102 | 103 | 101 | 102 | 99.8 | – | – | – | – | – | 102 | 91.1 | 98.8 | 100 | 96.1 | 98.2 | 92.9 | 89.6 | 95.9 | 107 | > 10 | > 10 | – | > 10 | > 10 |
| CCn1c(=O)c(-c2cc[nH]n2)cc2c(C)nc(N)nc21 [voxtalisib] | 6.8 | 6.1 | 3.1 | 5.4 | 5.2 | 95 | 91.9 | 91 | 71.9 | 32.6 | 104 | 104 | 91.2 | 80.8 | 33.5 | 99.3 | 97.3 | 97.9 | 93.1 | 60.3 | 108 | 106 | 101 | 88.5 | 35.4 | 102 | 96.7 | 93.5 | 86.5 | 42.9 | 1.17 | 1.55 | – | 1.84 | 1.61 |
